Reference: US20160135464A1, “PESTICIDAL COMPOSITIONS AND PROCESSES RELATED THERETO” (Dow AgroSciences LLC, priority 2014, published 2016)

What was measured:
[1] = test system: Beet Armyworm (BAW) (Spodoptera exigua); assay: Bioassay on beet armyworm (BAW), 128-well diet tray assay, percent mortality; format: in vivo; settings: for pest or weed control at 50 µg/cm2, 50 µg/cm2: Spodoptera exigua, 50 μg/cm^2
Procedure: (§1) Certain molecules disclosed in this document were tested against BAW and CEW using procedures described in the following examples. In the reporting of the results, the “BAW & CEW Rating Table” was used (See Table Section).
Bioassays on BAW (Spodoptera exigua)
Bioassays on BAW were conducted using a 128-well diet tray assay. One to five second instar BAW larvae were placed in each well (3 mL) of the diet tray that had been previously filled with 1 mL of artificial diet to which 50 μg/cm^2 of the test compound (dissolved in 50 μL of 90:10 acetone-water mixture) had been applied (to each of eight wells) and then allowed to dry. Trays were covered with a clear self-adhesive cover and held at 25° C., 14:10 light-dark for five to seven days. Percent mortality was recorded for the larvae in each well; activity in the eight wells was then averaged. The results are indicated in the table entitled “Table 5: Biological Results” (See Table Section).

[2] = test system: Corn Earworm (CEW) (Helicoverpa zea); assay: Bioassay on corn earworm (CEW), 128-well diet tray assay, percent mortality; format: in vivo; settings: for pest or weed control at 50 µg/cm2, 50 µg/cm2: Helicoverpa zea, 50 μg/cm^2
Procedure: as §1
Bioassays on CEW (Helicoverpa zea)
Bioassays on CEW were conducted using a 128-well diet tray assay. One to five second instar CEW larvae were placed in each well (3 mL) of the diet tray that had been previously filled with 1 mL of artificial diet to which 50 μg/cm^2 of the test compound (dissolved in 50 μL of 90:10 acetone-water mixture) had been applied (to each of eight wells) and then allowed to dry. Trays were covered with a clear self-adhesive cover and held at 25° C., 14:10 light-dark for five to seven days. Percent mortality was recorded for the larvae in each well; activity in the eight wells was then averaged. The results are indicated in the table entitled “Table 5: Biological Results” (See Table Section).

Compound | pest or weed control at 50 µg/cm2, 50 µg/cm2 [1] [%] | pest or weed control at 50 µg/cm2, 50 µg/cm2 [2] [%] | % Mortality BAW 50 μg/cm^2 [1] | % Mortality CEW 50 μg/cm^2 [2]
CC(C)c1ccccc1N1/C(=N/N=C/c2ccc(-c3ncn(-c4ccc(C(F)(C(F)(F)F)C(F)(F)F)cc4)n3)cc2)SCC1(C)O (stereo not drawn) [Compound 260C] | 50 to 100 | 50 to 100 |  | 
CC1(O)CS/C(=N\N=C\c2ccc(-c3ncn(-c4ccc(OC(F)(F)F)cc4)n3)cc2)N1c1ccccc1C1CCCC1 (stereo not drawn) [Compound 249C] | 50 to 100 | 50 to 100 |  | 
CC(C)c1ccccc1N1/C(=N/N=C/c2ccc(-c3ncn(-c4ccc(OC(F)(F)F)cc4)n3)cc2)SC(C)C1(C)O (stereo not drawn) [Compound 257C] | 50 to 100 | 50 to 100 |  | 
COCCOC(C)C(=O)OCS/C(=N\c1c(C)cccc1C)N/N=C/c1ccc(-c2ncn(-c3ccc(OC(F)(F)F)cc3)n2)cc1 (stereo not drawn) [Compound 41C] | 50 to 100 | 50 to 100 |  | 
CC1(O)CS/C(=N\c2c(Cl)cccc2C(F)(F)F)N1/N=C/c1ccc(-c2ncn(-c3ccc(OC(F)(F)F)cc3)n2)cc1 (stereo not drawn) [Compound 241C, (Z)-2-((2-chloro-6-(trifluoromethyl)phenyl)imino)-4-methyl-3-((E)-(4-(1-(4-(trifluoromethoxy)phenyl)-1H-1,2,4-triazol-3-yl)benzylidene)amino)thiazolidin-4-ol] | 50 to 100 | 50 to 100 |  | 
COc1cc(C)c(N2/C(=N/N=C/c3ccc(-c4ncn(-c5ccc(OC(F)(F)F)cc5)n4)cc3)SCC2(C)O)c(C)c1 (stereo not drawn) [Compound 255C] | 50 to 100 | 50 to 100 |  | 
CC(C)c1cc(F)ccc1N1/C(=N/N=C/c2ccc(-c3ncn(-c4ccc(OC(F)(F)F)cc4)n3)cc2)SCC1(C)O (stereo not drawn) [Compound 258C] | 50 to 100 | 50 to 100 |  | 
CCc1cc(OC)ccc1N1/C(=N/N=C/c2ccc(-c3ncn(-c4ccc(OC(F)(F)C(F)(F)F)cc4)n3)cc2)SCC1(C)O (stereo not drawn) [Compound 264C] | 50 to 100 |  |  | 
COc1cc(C)c(/N=C(/N/N=C/c2ccc(-c3ncn(-c4ccc(OC(F)(F)C(F)(F)F)cc4)n3)cc2)SCC(=O)O)c(C)c1 [Compound 50C] | 50 to 100 | 50 to 100 |  | 
CC1(O)CS/C(=N\N=C\c2ccc(-c3ncn(-c4ccc(OC(F)(F)F)cc4)n3)cc2)N1c1c(F)cccc1F (stereo not drawn) [Compound 240C] | 50 to 100 | 50 to 100 |  | 
CC(C)c1ccccc1N1CCCCC/S1=N\N=C\c1ccc(-c2ncn(-c3ccc(OC(F)(F)F)cc3)n2)cc1 (stereo not drawn) [Compound 212C] | 50 to 100 | 50 to 100 |  | 
Cc1cccc(C)c1N1CCS/C1=N\N=C\c1ccc(-c2ncn(-c3ccc(OC(F)(F)F)cc3)n2)cc1 [Compound 141C] | 50 to 100 | 50 to 100 |  | 
CC(C)c1ccccc1N1C(=NN=Cc2ccc(-c3ncn(-c4ccc(OC(F)(F)F)cc4)n3)cc2)SCC1(O)C(F)(F)F (stereo in doubt) [Compound 246C, (Z)-3-(2-isopropylphenyl)-2-((E)-(4-(1-(4-(trifluoromethoxy)phenyl)-1H-1,2,4-triazol-3-yl)benzylidene)hydrazono)-4-(trifluoromethyl)thiazolidin-4-ol] | 50 to 100 | 50 to 100 |  | 
CC1S/C(=N\N=C\c2ccc(-c3ncn(-c4ccc(OC(F)(F)F)cc4)n3)cc2)N(c2c(F)cccc2Cl)C1=O (stereo not drawn) [Compound 130C] | 50 to 100 | 50 to 100 |  | 
COc1cc(C)c(N2C(=O)CS/C2=N\N=C\c2ccc(-c3ncn(-c4ccc(OC(F)(F)F)cc4)n3)cc2)c(C)c1 [Compound 69C] | 50 to 100 | 50 to 100 |  | 
CC(C)c1ccccc1N1/C(=N/N=C/c2ccc(-c3ncn(-c4ccc(C(F)(F)F)cc4)n3)cc2)SCC1(C)O (stereo not drawn) [Compound 261C] | 50 to 100 | 50 to 100 |  | 
COCCOC(C)C(=O)OCS/C(=N\c1c(C)cc(OC)cc1C)N/N=C/c1ccc(-c2ncn(-c3ccc(OC(F)(F)F)cc3)n2)cc1 (stereo not drawn) [Compound 42C] | 50 to 100 | 50 to 100 |  | 
Cc1ccccc1-n1c(C)cs/c1=N\N=C\c1ccc(-c2ncn(-c3ccc(OC(F)(F)F)cc3)n2)cc1 [Compound 173C] | 50 to 100 | 50 to 100 |  | 
Cc1cccc(Cl)c1N1/C(=N/N=C/c2ccc(-c3ncn(-c4ccc(OC(F)(F)F)cc4)n3)cc2)SCC1(C)O (stereo not drawn) [Compound 244C] | 50 to 100 | 50 to 100 |  | 
Cc1cccc(N2/C(=N/N=C/c3ccc(-c4ncn(-c5ccc(OC(F)(F)F)cc5)n4)cc3)SCC2(C)O)c1C(C)C (stereo not drawn) [Compound 252C] | 50 to 100 | 50 to 100 |  | 
CCC(C)c1ccccc1N1/C(=N/N=C/c2ccc(-c3ncn(-c4ccc(OC(F)(F)F)cc4)n3)cc2)SCC1(O)C(F)(F)F (stereo not drawn) [Compound 247C] | 50 to 100 | 50 to 100 |  | 
Cc1ccc(C(C)C)c(N2/C(=N/N=C/c3ccc(-c4ncn(-c5ccc(OC(F)(F)F)cc5)n4)cc3)SCC2(C)O)c1 (stereo not drawn) [Compound 253C] | 50 to 100 | 50 to 100 |  | 
CCN(CC)c1ccc(-c2cs/c(=N\N=Cc3ccc(-c4ncn(-c5ccc(OC(F)(F)F)cc5)n4)cc3)n2-c2c(C)cccc2C)cc1 [Compound 74C, 4-((2Z)-3-(2,6-dimethylphenyl)-2-((4-(1-(4-(trifluoromethoxy)phenyl)-1H-1,2,4-triazol-3-yl)benzylidene)hydrazono)-2,3-dihydrothiazol-4-yl)-N,N-diethylaniline] | 50 to 100 | 50 to 100 |  | 
COc1ccc(N2C(=O)CS/C2=N\N=C\c2ccc(-c3ncn(-c4ccc(OC(F)(F)F)cc4)n3)cc2)cc1 [Compound 114C] | 50 to 100 | 50 to 100 |  | 
CC(C)c1cc(F)c(F)cc1N1/C(=N/N=C/c2ccc(-c3ncn(-c4ccc(OC(F)(F)F)cc4)n3)cc2)SCC1(C)O (stereo not drawn) [Compound 259C] | 50 to 100 | 50 to 100 |  | 
Cc1cccc(C)c1/N=C(/N/N=C/c1ccc(-c2ncn(-c3ccc(OC(F)(F)F)cc3)n2)cc1)SCC#C[Si](C)(C)C [Compound 9C] |  |  | A (50-100) | A (50-100)
